How the values were obtained:
[1] = test system: rats undergoing the forced swimming test (FST); experiment: Forced swimming test (FST), immobility time after acute oral treatment; type: in vivo, Sprague–Dawley rats; conditions: Fluoxetine 20 mg/kg, single oral dose 0.5 h before test (Figure 1A); p < 0.05 vs vehicle
Protocol: ZQ lyophilized powder or fluoxetine (Eli Lilly, United States) was dissolved with saline. To evaluate dose-dependent effects, ZQ (5, 10, 20 g/kg) or fluoxetine (20 mg/kg) was orally administered as a single dosage 0.5 h before the test. To study the precise relationship between antidepressant effects and pharmacokinetics, ZQ (20 g/kg) was orally administered as a single dose 0.5, 1, 2, or 4 h before the test. Similarly, vehicle rats were orally administered an equal volume of saline using the identical procedure.
The swimming tests were conducted according to a previously described method ([Flores-Burgess et al., 2017]) with minor modifications. In brief, all experiments were operated between 12:00 h and 15:00 h in the light cycle. Each rat was individually put into a vertical glass cylinder with a diameter of 20 cm, water depth of 30 cm and water temperature of 25°C. A 15-min forced swimming test was conducted 24 h before the 5-min test. Each rat was deemed to be immobile when it stopped scrabbling, remained floating stilly in the water and only made necessary struggling to maintain its head over water. The total duration of immobility was recorded during the 5-min test.

[2] = Stability of the analytes in rat plasma (QC samples); type: in vitro ADME; conditions: deviation from nominal conc
Protocol: The stabilities of the 7 analytes in rat plasma was evaluated by assaying six replicates of QC samples at low, middle, and high concentrations in practical experimental conditions: samples post-preparation stored in auto-sampler condition for 12 h, and storage at -80°C for 1 month. The freeze- thaw stability was determined after the experience of three freeze-thaw cycles (from -80°C to room temperature). Samples were identified as stable if the accuracy bias was within 15.0% of the nominal concentration.

[3] = Qualitative LC/MS-MS identification in hippocampus and cortex after oral ZQ extract; type: in vivo, Sprague–Dawley rats; conditions: acute depressive rats, 0.5 h after oral ZQ extract 20 g/kg
Protocol: To identify the main active compounds of ZQ in target tissue, six rats subjected to FST were sacrificed under anesthesia 0.5 h after oral administration of ZQ extract (20 g/kg), and then the hippocampal and cortex tissue was separated rapidly from the brain on an ice tray and stored at -80°C. All tissues (∼50.0 mg) were homogenized with 1.5 mL of ice-cold 0.9% saline.
(§1) Sample (200 μL) and 10 μL of mixed IS solution containing sulfamethoxazole (754 ng/mL) and honokiol (274 ng/mL) was added to Eppendorf tubes and extracted with 1 mL acetonitrile. The mixed solution was vortexed for 3 min and centrifuged at 10000 rpm for 10 min at 4°C to acquire the supernatant. The supernatant (800 μL) was moved to a clean Eppendorf tube, and then desiccated under a flow of nitrogen at 40°C. Finally, the residue was redissolved in 100 μL acetonitrile/water (90:10, v/v) with vortex-mixing for 3 min and centrifuged at 13000 rpm for 10 min. A 10 μL aliquot of the sample was injected into the LC/MS/MS system for analysis.

[4] = Pharmacokinetic study in plasma of acute depressive rats after oral ZQ extract (LC-MS/MS); type: in vivo, Sprague–Dawley rats; conditions: oral ZQ extract 20 g/kg; for AUC / AUC(0-t) / Cmax / Tmax / half-life: Sprague-Dawley, rat; for AUC: AUC0-∞; for half-life: male, po, 20 g/kg
Protocol: as §1
All of the rats were subjected to FST for 24 h before oral administration of the ZQ extract (20 g/kg). Plasma samples (about 0.5 mL) were gathered in a heparinized 1.5 mL Eppendorf tube from the venous plexus of the eye socket at 0.083, 0.25, 0.5, 0.75, 1.0, 1.5, 2.0, 3.0, 4.0, 6.0, 8.0, 12.0, and 24.0 h under anesthesia. Each sample was immediately centrifuged at 10000 rpm for 15 min to acquire the plasma. At last, the plasma was immediately placed at -80°C until measure.
All data were expressed as the mean ± SD. The plasma concentration of the 7 compounds during the experiment was calculated according to the daily calibration curve. The pharmacokinetic parameters, including Cmax (the peak drug plasma concentration), Tmax (the time to Cmax), AUC0-t (the area under the plasma concentration-time curve from 0 to time), AUC0-∞ (the area under the plasma concentration-time curve from 0 to time infinity), and t1/2 (the elimination half-life) were calculated by performing a non-compartment model using WinNonlin Professional Edition Version 2.1 (Pharsight Corporation, Sunnyvale, CA, United States). The immobile time in the FST test was evaluated by one-way ANOVA. Statistical significance was denoted at p < 0.05. Statistical analysis was operated by GraphPad Prism 5 software.

[5] = parameters: method as in Tong et al., 2012; conditions: oral ZQ 3.2 g/kg, ref Tong et al., 2012; cited from earlier work
[6] = plasma, male SD rats subjected to FST, mean ± SD, n = 6

CNCCC(Oc1ccc(C(F)(F)F)cc1)c1ccccc1 (stereo not drawn) [Fluoxetine, fluoxetine]
immobility time in the FST [1]: 116.07 ± 28.65 s

COc1ccc([C@@H]2CC(=O)c3c(O)cc(O[C@@H]4O[C@H](CO[C@@H]5O[C@@H](C)[C@H](O)[C@@H](O)[C@H]5O)[C@@H](O)[C@H](O)[C@H]4O)cc3O2)cc1O [Hesperidin, hesperidin]
RE, -80°C for 1 month ([2]; high QC level): 0.02%
RE, Room temperature for 12 h ([2]; high QC level): 4.88%
RE, Three freeze-thaw cycles ([2]; high QC level): -1.62%
RE, -80°C for 1 month ([2]; low QC level): 6.36%
RE, Room temperature for 12 h ([2]; low QC level): -1.88%
RE, Three freeze-thaw cycles ([2]; low QC level): 4.08%
RE, -80°C for 1 month ([2]; middle QC level): 4.15%
RE, Room temperature for 12 h ([2]; middle QC level): 0.91%
RE, Three freeze-thaw cycles ([2]; middle QC level): 5.80%
absorption into hippocampus and cortex (qualitative) [3]: absorbed into the hippocampus and cortex
AUC [4, 6]: 179 ± 43.9 ng·h/mL
AUC(0-t) [4, 6]: 136 ± 23.7 ng·h/mL
Cmax [4, 6]: 46 ± 7.32 ng/mL
Tmax [4, 6]: 0.42 ± 0.13 h
half-life [4, 6]: 2.93 ± 0.88 h

COc1ccc2ccc(=O)oc2c1CC(O)C(C)(C)O (stereo not drawn) [Meranzin hydrate]
RE, -80°C for 1 month ([2]; high QC level): 9.41%
RE, Room temperature for 12 h ([2]; high QC level): 7.34%
RE, Three freeze-thaw cycles ([2]; high QC level): 3.48%
RE, -80°C for 1 month ([2]; low QC level): 6.97%
RE, Room temperature for 12 h ([2]; low QC level): 11.26%
RE, Three freeze-thaw cycles ([2]; low QC level): 11.95%
RE, -80°C for 1 month ([2]; middle QC level): 7.29%
RE, Room temperature for 12 h ([2]; middle QC level): 2.66%
RE, Three freeze-thaw cycles ([2]; middle QC level): -13.99%
absorption into hippocampus and cortex (qualitative) [3]: absorbed into the hippocampus and cortex
AUC [4, 6]: 1710 ± 350 ng·h/mL
AUC(0-t) [4, 6]: 1480 ± 259 ng·h/mL
Cmax [4, 6]: 222 ± 53.9 ng/mL
Tmax [4, 6]: 1.25 ± 0.42 h
half-life [4, 6]: > 7.3 h
AUC0-∞ relative to other flavonoids ([4]; depressive rats): at least fivefold higher
T1/2 [4, 6]: 7.31 ± 1.51 h

O=C1C[C@@H](c2ccc(O)cc2)Oc2cc(O)cc(O)c21 [Naringenin, naringenin]
RE, -80°C for 1 month ([2]; high QC level): 3.14%
RE, Room temperature for 12 h ([2]; high QC level): -2.56%
RE, Three freeze-thaw cycles ([2]; high QC level): -2.59%
RE, -80°C for 1 month ([2]; low QC level): -7.39%
RE, Room temperature for 12 h ([2]; low QC level): 5.64%
RE, Three freeze-thaw cycles ([2]; low QC level): -8.95%
RE, -80°C for 1 month ([2]; middle QC level): -6.00%
RE, Room temperature for 12 h ([2]; middle QC level): 10.67%
RE, Three freeze-thaw cycles ([2]; middle QC level): -4.45%
AUC0-∞ in healthy rats compared with this study [5]: higher than the data obtained in our experiment
absorption into hippocampus and cortex (qualitative) [3]: absorbed into the hippocampus and cortex
AUC [4, 6]: 226 ± 64.9 ng·h/mL
AUC(0-t) [4, 6]: 188 ± 38.9 ng·h/mL
Cmax [4, 6]: 78.1 ± 22.2 ng/mL
Tmax [4, 6]: 0.42 ± 0.13 h
half-life [4, 6]: 4.37 ± 1.19 h

C[C@@H]1O[C@@H](O[C@H]2[C@H](Oc3cc(O)c4c(c3)O[C@H](c3ccc(O)cc3)CC4=O)O[C@H](CO)[C@@H](O)[C@@H]2O)[C@H](O)[C@H](O)[C@H]1O [Naringin, naringin]
RE, -80°C for 1 month ([2]; high QC level): 4.57%
RE, Room temperature for 12 h ([2]; high QC level): 5.94%
RE, Three freeze-thaw cycles ([2]; high QC level): 0.56%
RE, -80°C for 1 month ([2]; low QC level): 12.29%
RE, Room temperature for 12 h ([2]; low QC level): 5.84%
RE, Three freeze-thaw cycles ([2]; low QC level): 9.33%
RE, -80°C for 1 month ([2]; middle QC level): 0.21%
RE, Room temperature for 12 h ([2]; middle QC level): 6.83%
RE, Three freeze-thaw cycles ([2]; middle QC level): 4.34%
AUC0-∞ in healthy rats compared with this study [5]: higher than the data obtained in our experiment
absorption into hippocampus and cortex (qualitative) [3]: absorbed into the hippocampus and cortex
AUC [4, 6]: 312 ± 89.5 ng·h/mL
AUC(0-t) [4, 6]: 293 ± 92 ng·h/mL
Cmax [4, 6]: 104 ± 18.8 ng/mL
Tmax [4, 6]: 0.42 ± 0.13 h
half-life [4, 6]: 1.67 ± 0.57 h

C[C@@H]1O[C@@H](OC[C@H]2O[C@@H](Oc3cc(O)c4c(c3)O[C@H](c3ccc(O)cc3)CC4=O)[C@H](O)[C@@H](O)[C@@H]2O)[C@H](O)[C@H](O)[C@H]1O [Narirutin, narirutin]
RE, -80°C for 1 month ([2]; high QC level): 3.03%
RE, Room temperature for 12 h ([2]; high QC level): 5.53%
RE, Three freeze-thaw cycles ([2]; high QC level): 7.94%
RE, -80°C for 1 month ([2]; low QC level): 8.49%
RE, Room temperature for 12 h ([2]; low QC level): 12.43%
RE, Three freeze-thaw cycles ([2]; low QC level): 9.69%
RE, -80°C for 1 month ([2]; middle QC level): 7.57%
RE, Room temperature for 12 h ([2]; middle QC level): 1.84%
RE, Three freeze-thaw cycles ([2]; middle QC level): 8.89%
absorption into hippocampus and cortex (qualitative) [3]: absorbed into the hippocampus and cortex
AUC [4, 6]: 44.9 ± 9.99 ng·h/mL
AUC(0-t) [4, 6]: 42.6 ± 9.64 ng·h/mL
Cmax [4, 6]: 31.1 ± 8.83 ng/mL
Tmax [4, 6]: 0.33 ± 0.13 h
half-life [4, 6]: 1.49 ± 0.42 h

COc1ccc([C@@H]2CC(=O)c3c(O)cc(O[C@@H]4O[C@H](CO)[C@@H](O)[C@H](O)[C@H]4O[C@@H]4O[C@@H](C)[C@H](O)[C@@H](O)[C@H]4O)cc3O2)cc1O [Neohesperidin, neohesperidin]
RE, -80°C for 1 month ([2]; high QC level): 2.03%
RE, Room temperature for 12 h ([2]; high QC level): 10.82%
RE, Three freeze-thaw cycles ([2]; high QC level): -0.30%
RE, -80°C for 1 month ([2]; low QC level): 3.31%
RE, Room temperature for 12 h ([2]; low QC level): -5.80%
RE, Three freeze-thaw cycles ([2]; low QC level): 7.23%
RE, -80°C for 1 month ([2]; middle QC level): 3.13%
RE, Room temperature for 12 h ([2]; middle QC level): 7.28%
RE, Three freeze-thaw cycles ([2]; middle QC level): 5.88%
AUC0-∞ in healthy rats compared with this study [5]: higher than the data obtained in our experiment
absorption into hippocampus and cortex (qualitative) [3]: absorbed into the hippocampus and cortex
AUC [4, 6]: 239 ± 95.6 ng·h/mL
AUC(0-t) [4, 6]: 234 ± 87.3 ng·h/mL
Cmax [4, 6]: 90.8 ± 48.5 ng/mL
Tmax [4, 6]: 0.29 ± 0.1 h
half-life [4, 6]: 2.02 ± 0.77 h

COc1ccc(-c2cc(=O)c3c(OC)c(OC)c(OC)c(OC)c3o2)cc1OC [Nobiletin, nobiletin]
RE, -80°C for 1 month ([2]; high QC level): -1.14%
RE, Room temperature for 12 h ([2]; high QC level): 4.48%
RE, Three freeze-thaw cycles ([2]; high QC level): -6.73%
RE, -80°C for 1 month ([2]; low QC level): -9.94%
RE, Room temperature for 12 h ([2]; low QC level): -4.37%
RE, Three freeze-thaw cycles ([2]; low QC level): -7.88%
RE, -80°C for 1 month ([2]; middle QC level): -8.19%
RE, Room temperature for 12 h ([2]; middle QC level): 5.03%
RE, Three freeze-thaw cycles ([2]; middle QC level): -7.62%
absorption into hippocampus and cortex (qualitative) [3]: absorbed into the hippocampus and cortex
AUC [4, 6]: 153 ± 40 ng·h/mL
AUC(0-t) [4, 6]: 151 ± 40.6 ng·h/mL
Cmax [4, 6]: 53.9 ± 14.3 ng/mL
Tmax [4, 6]: 0.38 ± 0.14 h
half-life [4, 6]: 1.28 ± 0.87 h

Source: PMC5845165, “Pharmacokinetic Study of 7 Compounds Following Oral Administration of Fructus Aurantii to Depressive Rats” (Frontiers in Pharmacology, 2018)
